For test [1], the system named is cumulus-oocyte complexes (COCs). Briefly: In vitro maturation to egg. The test is classed as cell-based, mouse. The procedure: The cumulus-oocyte complexes (COCs) were collected from the secondary follicles obtained by “3. In vitro growth culture of secondary follicle” described above. Then, COCs were cultured with α-MEM containing 5% FBS, 0.1 IU/mL FSH, 1.2 IU/mL chorionic gonadotropin (Gonatropin, ASKA Pharmaceutical), and […] (Gibco, Thermo Fisher Scientific Inc.) for 17 hours. Control COCs were collected from adult female mice 44 hours after the injection with equine CG (Serotropin; ASKA Pharmaceutical). The obtained COCs obtained from the adult female mice, in vivo-derived COCs, were cultured with α-MEM containing 5% FBS, 0.1 IU/mL FSH, 1.2 IU/mL chorionic gonadotropin, and 4 ng/mL epidermal growth factor in the same way to in vitro-derived COCs. As a result of in vitro maturation, in (ii) SPS group, (iv) FBS/SPS group, and (v) FBS/ICI group, 77 to 95% oocytes released the first polar body after 17 hours and became MII oocytes (FIGS. 11b and c).

The subject of test [2] is secondary follicles from in vitro cultured gonads. Briefly: In vitro growth culture of secondary follicle. Format: cell-based, mouse. On the procedure: The secondary follicles obtained by the in vitro organ culture of the gonads from the fetuses was processed for in vitro growth culture. […] In this example, the culture was performed with the medium supplemented with PVP which is the high-molecular-weight compound. Furthermore, the inventor found out that oocytes can develop to functional eggs by dissociating a part of the cell layers between a granulosa cell layer and a thecal cell layer which constitute a secondary follicle. Accordingly, in this example, the in vitro culture of the follicle includes a step of partial dissociation between the granulosa cell layer and the thecal cell layer. More concretely, the in vitro culture of the follicle was performed as follows.
After the culture of “1. In vitro organ culture of gonad” for 17 days mentioned above, the cultured gonads (ovaries) were transferred to L15 medium and the secondary follicles formed in the gonads were isolated from the gonads, using a fine Tungsten needle. The secondary follicles were further cultured in α-MEM supplemented with 2% (w/v) PVP, 5% FBS, and 0.1 IU/mL FSH (FOLLISTIM Injection 50; MSD). The secondary follicles were cultured on a Millicell membrane (0.4-μm pore size, 27-mm diameter; Merck Millipore) in a 35-mm culture dish (Falcon, Corning). On day 3 of the culture, the secondary follicles were transferred to 0.1% collagenase type I (Worthington Biochemicals) containing L15 medium and treated for 15 min at 37° C. Then, the theca cell layer of the secondary follicles was removed by pipetting with a pulled fine-glass capillary. Fifty to 60 secondary follicles were cultured on Transwell®-COL or Millicell membranes for another 9 to 13 days at 37° C. in the medium under 5% CO2 and 95% air. The inside and outside of the membrane insert were filled with 1 mL and 2 mL medium, respectively. Approximately half the medium in each well was replaced with fresh medium every other day.

The mark [3] stands for this setting: FBS/1 μM ICI group (ICI day 5-11).
Setting [4] is: FBS/1 μM ICI group (ICI day 5-11), 19 cultured gonads.
The mark [5] stands for this setting: FBS/5 μM ICI group (ICI day 5-11).
[6] abbreviates: FBS/5 μM ICI group (ICI day 5-11), 6 cultured gonads.
[7] abbreviates: FBS/10 μM ICI group (ICI day 5-11).
Setting [8] is: FBS/10 μM ICI group (ICI day 5-11), 6 cultured gonads.
Setting [9] is: Vitrification FBS/1 μM ICI (vitrified-warmed gonads).
The mark [10] stands for this setting: Vitrification FBS/1 μM ICI (vitrified-warmed gonads), 4 cultured gonads.

In the case of `C[C@]12CC[C@@H]3c4ccc(O)cc4C[C@@H](CCCCCCCCC[S+]([O-])CCCC(F)(F)C(F)(F)F)[C@H]3[C@@H]1CC[C@@H]2O` (stereo partly drawn) [ICI, 7α, 17β-[9-([4,4,5,5,5-pentafluoropentyl]sulfinyl)nonyl]estra-1,3,5(10)-triene-3,17-diol], the “No. of oocytes matured into MII, proportion to the number of collected follicles” value is 50.1% in test [1] (setting [3]), 53.8% in test [1] (setting [5]), 50.7% in test [1] (setting [7]) and 64.9% in test [1] (setting [9]). In addition, the “No. of oocytes matured into MII” value in test [1] (setting [4]) came out at 321; in test [1] (setting [6]), 168; in test [1] (setting [8]) it was 256; in test [1] (setting [10]), 37. The “No. of collected COCs, proportion to the number of collected follicles” value in test [2] (setting [3]) is 53.0%; in test [2] (setting [5]) it was 57.1%; in test [2] (setting [7]) it was 55.6%; in test [2] (setting [9]) it was 68.4%. Further, the “No. of collected COCs” value is 340 in test [2] (setting [4]), 178 in test [2] (setting [6]), 281 in test [2] (setting [8]) and 39 in test [2] (setting [10]). Moreover, the “average diameter of the oocytes obtained by the in vitro culture” value in test [2] (FBS/10 μM ICI group, n=85) turned out to be 80.0 μm.

Values taken from patent US11773368B2, “Culture method for differentiating primordial germ cells into functionally mature oocytes” (TOKYO UNIVERSITY OF AGRICULTURE, priority 2015, dated 2023).
